{
  "source": "patent US12540163B2",
  "about": "(priority 2021, dated 2026)",
  "key": {"hHv1": {"biological_target": "hHv1 (Homo sapiens, UniProt Q96D96)", "sequence (Q96D96 whole entry)": "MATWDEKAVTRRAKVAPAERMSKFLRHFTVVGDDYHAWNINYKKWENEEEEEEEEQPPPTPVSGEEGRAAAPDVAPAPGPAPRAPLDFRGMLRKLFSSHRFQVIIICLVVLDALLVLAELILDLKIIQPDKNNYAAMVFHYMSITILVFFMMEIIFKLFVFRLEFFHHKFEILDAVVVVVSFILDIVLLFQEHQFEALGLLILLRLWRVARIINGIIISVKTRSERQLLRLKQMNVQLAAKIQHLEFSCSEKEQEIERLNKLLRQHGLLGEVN"}, "[1]": {"system": "non-capacitated human sperm"}, "[2]": {"system": "non-capacitated human sperm", "remark": "listed apart in the source"}},
  "note": "Several values for one entry are separate records, joined by “and”; a condition that tells them apart may be missing. Equal values may be shown once.",
  "data": [
    {"compound": "O=C(O)CN(CCN(CC(=O)O)CC(=O)O)CC(=O)O", "note": "[EDTA]", "values": [
      {"measurement": "hHv1 in HEK293T cells V1/2 after application", "setting": "hHv1", "value": "−29 ± 3", "unit": "mV"},
      {"measurement": "Sperm H+ current V1/2 after application", "setting": "hHv1 in human sperm", "value": "4 mV and 4 ± 1 mV"},
      {"measurement": "Sperm H+ current V1/2 shift", "setting": "hHv1 in human sperm", "value": 11, "unit": "mV"}
    ]},
    {"compound": "CC(C)[C@H]1c2ccc(F)cc2CC[C@@]1(CCN(C)CCCc1nc2ccccc2[nH]1)OC(=O)C1CC1", "note": "[NNC]", "values": [
      {"measurement": "inhibition of Alb-potentiated [Ca2+]i increase", "setting": "[1]", "value": "inhibited"}
    ]},
    {"compound": "bovine serum albumin [BSA]", "values": [
      {"measurement": "change of pHi", "setting": "[2]", "value": "increased the speed of cytoplasmic alkalization"},
      {"measurement": "increase of progesterone-induced peak [Ca2+]i", "setting": "[1]", "value": 2.2, "unit": "fold"}
    ]}
  ]
}
